For one assay, the target named is KAT6A (Homo sapiens (Human), UniProt Q92794). Nature of the assay: KAT assay (SAMDI mass spectrometry), KAT6A.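 Further: Baculovirus-expressed KAT6A acetylating histone H3 (1-21) peptide (2 µM), 30-60 min at room temperature, % product conversion fitted to Morrison equation for tight-binding competitive inhibitors.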 Format: biochemical. As to conditions: KAT6a Ki at 1 μM AcCoA, 1 μM AcCoA.
The next assay addresses KAT6B (Homo sapiens (Human), UniProt Q8WYB5). Nature of the assay: KAT assay (SAMDI mass spectrometry), KAT6B. It is filed as biochemical. As to conditions: 1 μM AcCoA.
Another assay deals with KAT5 (Homo sapiens (Human), UniProt Q92993). Nature of the assay: KAT assay (SAMDI mass spectrometry), KAT5.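 Further: Baculovirus-expressed KAT5 acetylating a histone H4 peptide at room temperature, read as percent conversion to product, Ki from a Morrison tight-binding competitive fit.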 It is filed as biochemical. The following applies: 1 μM AcCoA.
Another assay addresses KAT7 (Homo sapiens (Human), UniProt O95251). Nature of the assay: KAT assay (SAMDI mass spectrometry), KAT7.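 Further: Baculovirus-expressed enzyme acetylating a histone peptide at room temperature, percent conversion from product and substrate peak areas, Ki from a Morrison tight-binding competitive fit.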 It is filed as biochemical. The following applies: KAT7 Ki at 1 μM AcCoA.
The next assay deals with KAT8 (Homo sapiens (Human), UniProt Q9H7Z6). Nature of the assay: KAT assay (SAMDI mass spectrometry), KAT8. Format: biochemical. The following applies: 1 μM AcCoA.
The subject of assay [1] is histone H3K23 acetylation in U2OS cells. Nature of the assay: Histone H3 Lysine 23 Acetylation Biomarker Assay. It is filed as cell-based. As to conditions: Homo sapiens, 24 hours incubation. The method, then: Compounds were tested for their ability to inhibit acetylation of the histone H3K23 marker in the following assay:
The cell line U2OS was seeded at a density of 9,000 cells per well in 96 well optical quality tissue culture plates in RPMI medium and 10% foetal bovine serum, and allowed to adhere for 24 hours under standard culture conditions (37 degree Celsius, 5% CO2). At the end of this period the medium was aspirated. […] After incubation for 24 hours, the cells were fixed with 3.7% formaldehyde in PBS for 20 minutes at room temperature, washed (5×5 minutes) with phosphate buffer saline containing 0.1% Tween 20 and blocked with Odyssey blocking buffer (LI-COR, Lincoln, Nebr.) containing 0.1% TritonX100. Anti-H3K23ac specific antibody (Abcam ab177275) in Odyssey blocking buffer containing 0.1% Tween 20 was added and incubated for 16 hours at 4 degree Celsius. After washing (as above), a secondary antibody labelled with Alexa647 dye (LifeTechnologies) and Hoechst 33342 (1 μg/mL, SigmaAldrich) were added for 1 hour incubation. Plates were washed as previously and read on a PerkinElmer Phenix high content imaging platform. Using a Columbus image analysis pipeline, individual nuclei were located by Hoechst 33342 stain and the acetylation level was calculated from the Alexa647-related intensity in the same area.

In assay [2] the test system is histone H3 Lysine 14 acetylation in U2OS cells. Nature of the assay: Histone H3 Lysine 14 Acetylation Biomarker Assay. Format: cell-based. As to conditions: Homo sapiens, serum free medium, 24 hours incubation. On the procedure:
Compounds were tested for their ability to inhibit acetylation of the histone H3 Lysine 14 marker in the following assay:
The cell line U2OS was seeded at a density of 3,000 cells per well in 384-well optical quality tissue culture plates in RPMI medium supplemented with 10% foetal bovine serum and 10 mM Hepes. The cells were allowed to adhere for 24 hours under standard culture conditions (37 degree Celsius, 5% CO2). At the end of this period the cells were washed with serum free medium. […] After incubation for 24 hours, the cells were fixed with 4% formaldehyde in PBS for 15 minutes at room temperature, washed with phosphate buffer saline and blocked with blocking buffer containing 0.2% TritonX100 and 2% BSA. Anti-H3K14ac specific antibody (Cell Signalling Technologies) in blocking buffer was added and incubated overnight at 4 degree Celsius. After washing, a secondary antibody labelled with AlexaFluor 488 dye (ThermoFisher) and Hoechst 33342 (1 μg/mL, Life Technologies) were added for 2 hours incubation at room temperature. Plates were washed and read on a PerkinElmer Opera HCS high content imaging platform. Using a Columbus image analysis pipeline, individual nuclei were located by Hoechst 33342 stain and the acetylation level was calculated from the AlexaFluor 488-related intensity in the same area.

The test system of assay [3] is histone H2A.Z Lysine 7 acetylation in U2OS cells. Nature of the assay: H2A.Z Lysine 7 Acetylation Biomarker Assay. Format: cell-based. The following applies: Homo sapiens, serum free medium, 24 hours incubation. On the procedure:
Compounds were tested for their ability to inhibit the histone H2A.Z Lysine 7 acetylation marker in the following assay: The cell line U2OS was seeded at a density of 3,000 cells per well in 384-well optical quality tissue culture plates in RPMI medium supplemented with 10% foetal bovine serum and 10 mM Hepes. The cells were allowed to adhere for 24 hours under standard culture conditions (37 degree Celsius, 5% CO2). At the end of this period the cells were washed with serum free medium. […] 2018, at 30 μM concentration. After incubation for 24 hours, the cells were fixed with 4% formaldehyde in PBS for 15 minutes at room temperature, washed with phosphate buffer saline and blocked with blocking buffer containing 0.2% TritonX100 and 2% BSA. Anti-H2A.ZK7ac specific antibody (Abcam) in blocking buffer was added and incubated overnight at 4 degree Celsius. After washing, a secondary antibody labelled with AlexaFluor 488 dye (ThermoFisher) and Hoechst 33342 (1 μg/mL, Life Technologies) were added for 2 hours incubation at room temperature. Plates were washed and read on a PerkinElmer Opera HCS high content imaging platform. Using a Columbus image analysis pipeline, individual nuclei were located by Hoechst 33342 stain and the acetylation level was calculated from the AlexaFluor 488-related intensity in the same area.

In the next assay the target is TIP60-KAT5 (Homo sapiens (Human), UniProt Q92993). Nature of the assay: biochemical.
The next assay deals with MOZ-KAT6A (Homo sapiens (Human), UniProt Q92794). Nature of the assay: biochemical.
A further assay concerns the target HBO1-KAT7 (Homo sapiens (Human), UniProt O95251). Nature of the assay: biochemical.

5 compounds from patent US11492346B2, “Benzisoxazole sulfonamide derivatives” (Pfizer Inc., priority 2019, dated 2022) can be followed below.

Where only a bound is given, the exact number is not on record here.

Chain of HBO1-KAT7 (O95251 other isoform, or with tags, fused parts or gaps): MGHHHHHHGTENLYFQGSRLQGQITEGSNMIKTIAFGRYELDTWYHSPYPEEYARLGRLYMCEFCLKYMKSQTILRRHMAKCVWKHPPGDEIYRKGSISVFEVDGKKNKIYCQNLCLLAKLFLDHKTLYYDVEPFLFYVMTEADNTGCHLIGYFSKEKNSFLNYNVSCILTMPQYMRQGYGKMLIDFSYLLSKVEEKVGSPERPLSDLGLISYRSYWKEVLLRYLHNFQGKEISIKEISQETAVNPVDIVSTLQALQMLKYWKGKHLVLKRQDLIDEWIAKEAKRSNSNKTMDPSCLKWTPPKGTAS
Chain of MOZ-KAT6A (Q92794 other isoform, or with tags, fused parts or gaps): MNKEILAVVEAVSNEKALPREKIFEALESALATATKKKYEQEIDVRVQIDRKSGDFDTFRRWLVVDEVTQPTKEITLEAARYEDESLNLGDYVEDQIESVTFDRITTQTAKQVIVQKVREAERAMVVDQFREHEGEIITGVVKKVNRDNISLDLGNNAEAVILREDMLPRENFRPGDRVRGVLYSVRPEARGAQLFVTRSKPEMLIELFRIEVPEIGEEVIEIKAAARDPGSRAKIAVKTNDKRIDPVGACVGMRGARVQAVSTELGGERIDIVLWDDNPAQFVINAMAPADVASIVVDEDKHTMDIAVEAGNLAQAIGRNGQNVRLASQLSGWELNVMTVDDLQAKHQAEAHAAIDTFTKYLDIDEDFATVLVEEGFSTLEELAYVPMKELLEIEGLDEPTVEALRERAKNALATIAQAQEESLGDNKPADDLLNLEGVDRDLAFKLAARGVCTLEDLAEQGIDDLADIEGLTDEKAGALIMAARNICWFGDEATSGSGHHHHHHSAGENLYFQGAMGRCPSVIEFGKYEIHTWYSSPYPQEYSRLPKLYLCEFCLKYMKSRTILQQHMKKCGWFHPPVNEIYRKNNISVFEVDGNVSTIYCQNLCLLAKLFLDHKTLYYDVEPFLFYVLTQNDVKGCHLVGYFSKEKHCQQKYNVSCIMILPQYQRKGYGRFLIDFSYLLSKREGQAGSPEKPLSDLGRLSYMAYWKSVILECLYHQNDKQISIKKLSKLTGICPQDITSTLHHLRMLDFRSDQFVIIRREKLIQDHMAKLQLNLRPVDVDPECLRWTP
Chain of TIP60-KAT5 (Q92993 other isoform, or with tags, fused parts or gaps): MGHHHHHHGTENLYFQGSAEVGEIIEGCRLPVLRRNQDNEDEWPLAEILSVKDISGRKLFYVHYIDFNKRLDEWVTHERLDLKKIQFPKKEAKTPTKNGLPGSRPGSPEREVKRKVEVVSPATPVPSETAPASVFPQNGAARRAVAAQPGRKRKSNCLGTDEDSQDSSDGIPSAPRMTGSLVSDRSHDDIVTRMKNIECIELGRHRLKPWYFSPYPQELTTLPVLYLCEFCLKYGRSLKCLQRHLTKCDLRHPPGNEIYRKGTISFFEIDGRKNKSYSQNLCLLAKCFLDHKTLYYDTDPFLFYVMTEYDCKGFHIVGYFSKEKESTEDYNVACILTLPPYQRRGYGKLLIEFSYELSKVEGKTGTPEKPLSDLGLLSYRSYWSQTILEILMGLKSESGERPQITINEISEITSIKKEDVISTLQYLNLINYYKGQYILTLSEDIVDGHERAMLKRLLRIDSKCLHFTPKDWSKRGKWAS
Chain of KAT7 (O95251 whole entry): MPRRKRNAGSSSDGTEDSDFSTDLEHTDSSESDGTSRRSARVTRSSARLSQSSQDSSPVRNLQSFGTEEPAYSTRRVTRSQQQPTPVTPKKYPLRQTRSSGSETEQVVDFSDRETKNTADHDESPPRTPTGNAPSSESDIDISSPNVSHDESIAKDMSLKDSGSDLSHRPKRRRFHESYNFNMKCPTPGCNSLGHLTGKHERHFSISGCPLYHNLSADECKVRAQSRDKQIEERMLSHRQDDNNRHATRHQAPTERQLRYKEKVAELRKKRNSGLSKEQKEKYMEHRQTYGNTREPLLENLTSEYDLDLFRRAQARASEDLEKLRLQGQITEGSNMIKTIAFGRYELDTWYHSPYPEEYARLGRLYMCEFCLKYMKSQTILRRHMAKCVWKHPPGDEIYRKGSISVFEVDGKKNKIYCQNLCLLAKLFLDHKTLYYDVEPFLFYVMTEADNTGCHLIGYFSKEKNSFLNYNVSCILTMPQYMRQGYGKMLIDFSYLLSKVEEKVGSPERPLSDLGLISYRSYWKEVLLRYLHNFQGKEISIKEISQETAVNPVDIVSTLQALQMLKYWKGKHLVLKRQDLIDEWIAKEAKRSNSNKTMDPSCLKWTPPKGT
Chain of KAT8 (Q9H7Z6 whole entry): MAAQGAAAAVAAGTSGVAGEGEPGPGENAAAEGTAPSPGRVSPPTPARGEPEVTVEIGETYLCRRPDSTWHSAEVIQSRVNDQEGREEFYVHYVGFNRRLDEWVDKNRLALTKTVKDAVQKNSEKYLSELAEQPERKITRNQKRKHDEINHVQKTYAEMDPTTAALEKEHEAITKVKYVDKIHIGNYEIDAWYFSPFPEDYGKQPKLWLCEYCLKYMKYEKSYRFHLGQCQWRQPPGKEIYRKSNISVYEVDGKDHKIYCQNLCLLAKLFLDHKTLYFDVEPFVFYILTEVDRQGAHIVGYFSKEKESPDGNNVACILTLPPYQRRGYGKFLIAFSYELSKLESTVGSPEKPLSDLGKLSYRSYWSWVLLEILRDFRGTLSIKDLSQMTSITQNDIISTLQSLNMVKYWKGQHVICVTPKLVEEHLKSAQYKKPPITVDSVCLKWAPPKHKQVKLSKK
Chain of KAT5 (Q92993 whole entry): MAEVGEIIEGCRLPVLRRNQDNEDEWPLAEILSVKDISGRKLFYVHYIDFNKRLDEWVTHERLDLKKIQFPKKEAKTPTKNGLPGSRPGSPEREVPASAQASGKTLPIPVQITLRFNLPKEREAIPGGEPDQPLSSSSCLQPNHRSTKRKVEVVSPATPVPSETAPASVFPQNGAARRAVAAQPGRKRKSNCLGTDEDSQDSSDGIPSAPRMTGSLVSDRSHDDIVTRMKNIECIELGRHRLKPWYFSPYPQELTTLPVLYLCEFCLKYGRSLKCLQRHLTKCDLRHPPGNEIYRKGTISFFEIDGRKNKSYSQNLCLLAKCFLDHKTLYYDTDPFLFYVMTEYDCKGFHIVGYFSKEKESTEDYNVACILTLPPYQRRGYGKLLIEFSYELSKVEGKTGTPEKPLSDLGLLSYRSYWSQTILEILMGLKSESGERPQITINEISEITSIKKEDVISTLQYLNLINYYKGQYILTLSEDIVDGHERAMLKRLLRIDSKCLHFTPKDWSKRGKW
Method for KAT8: Prepare 10 mM stock solutions in 100% DMSO from solid material • 2. Serial dilute 10 mM, 1 mM or 0.1 mM compound stocks 3-fold in 100% DMSO for 11-point dose response
Prepare 1× assay buffer containing 10 mM Tris HCL pH 8.0, 2.5 mM NaCl, 0.5 mM EDTA, 0.005% BSG and 0.02% Tween-20 • 2. Dilute Histone peptide (CPC Scientific) and AcCoA (Sigma) together in assay buffer to 2×. • 3. Dilute KAT enzyme in assay buffer to 2×.
Enzyme reaction • 1. Final reaction conditions for each KAT assay in a 20 ul assay reaction volume: • i. KAT5 25 nM, 1 uM AcCoA, 2 uM H4 1-21 peptide, 30-minute reaction • ii. KAT6A 15 nM, 1 uM AcCoA, 2 uM H3 1-21 peptide, 45-minute reaction • iii. KAT6B 25 nM, 1 uM AcCoA, 2 uM H3 1-21 peptide, 60-minute reaction • iv. KAT7 12.5 nM, 1 uM AcCoA, 2 uM H3 1-21 peptide, 45-minute reaction • v. KAT8 15 nM, 1 uM AcCoA, 2 uM H3 1-21 peptide, 45-minute reaction • 2. Add 0.5 ul of diluted compound to the assay plate (384-well V-bottom polypropylene plates) or 0.5 ul of DMSO for control wells. • 3. Add 10 ul of 2× Histone peptide/2×AcCoA mix to the assay plate. • 4. Add 10 ul of 2× enzyme to the assay plate. • 5. Stop the reaction after the indicated time with the addition of 2 ul of 5% formic acid • 6. Each reaction was analyzed using self-assembled monolayer desorption/ionization time-of-flight mass spectrometry (Mrksich, Milan (2008) Mass Spectrometry of Self-Assembled Monolayers: A New Tool for Molecular Surface Science ACS Nano 2008 2 (1), 7-18; SAMDI Tech, Inc. (Chicago, Ill.)). • 7. Area under the curve (AUC) for both substrate and product peaks was determined for KAT5 at M.W. 2561 [Substrate+H]^+ and 2603 [Product+H]^+ with a +/−1 Da tolerance, respectively • 8. Area under the curve (AUC) for both substrate and product peaks was determined for KAT6a, KAT6B, KAT7 and KAT8 at M.W. 2723 [Substrate+H]^+ and 2765 [Product+H]^+ with a +/−1 Da tolerance, respectively. […] Percent conversion to product was calculated by: AUCProduct/(AUCsubstrate+AUCProduct).
IC50 values were determined by fitting the % conversion at each inhibitor concentration to the 4-parameter IC50 equation using Pfizer proprietary curve fitting software. • 2. Ki values were determined by fitting the % conversion at each inhibitor concentration to the Morrison equation for tightbinding competitive inhibitors using Pfizer proprietary curve fitting software.
KAT enzymes were expressed using a baculovirus expression system and purified at Pfizer, La Jolla. […] Acetyl coenzyme A was purchased from Sigma-Aldrich (St. Louis, Mo.). All other biochemical reagents were purchased from Sigma-Aldrich or ThermoFisher Scientific (Waltham, Mass.).
KAT assays were performed at room temperature in assay buffer containing 1 μM AcCoA, 2 μM histone peptide, 10 mM Tris HCL pH 8.0, 2.5 mM NaCl, 0.5 mM EDTA, 0.005% BSG and 0.02% Tween-20. 10 ul of 2× Histone peptide/AcCoA mix was added to a 384-well V-bottom polypropylene assay plate containing 0.5 ul of serially diluted test compound in 100% dimethyl sulfoxide (DMSO). To start the reaction, 10 ul of 2× enzyme solution was added to the assay plate. KAT assays were terminated after 30-60 minutes with the addition of 2 ul of 5% formic acid. All assays used histone H3 (1-21) peptide except for the KAT5 assay which used histone H4 (1-21) peptide. The final enzyme concentration for each KAT was as follows: KAT5, 25 nM; KAT6A, 15 nM; KAT6B, 25 nM; KAT7, 12.5 nM; KAT8 15 nM. Each reaction was analyzed using self-assembled monolayer desorption/ionization time-of-flight mass spectrometry (Mrksich, Milan (2008) Mass Spectrometry of Self-Assembled Monolayers: A New Tool for Molecular Surface Science ACS Nano 2008 2 (1), 7-18; SAMDI Tech, Inc. (Chicago, Ill.)).
Area under the curve (AUC) for both substrate and product peaks was determined for KAT5 at M.W. 2561 [Substrate+H]^+ and 2603 [Product+H]^+ with a +/−1 Da tolerance, respectively.

A word on the Ki: it is the dissociation constant of the complex between target and ligand, obtained from inhibition or displacement. Lower therefore signals a stronger hold on the target. In general, IC50 refers to the midpoint of a concentration-inhibition curve. On to `COc1cccc(OC)c1S(=O)(=O)Nc1noc2cc(Cn3cc(C)cn3)cc(OC)c12` [Example 100, 2,6-dimethoxy-N-(4-methoxy-6-((4-methyl-1H-pyrazol-1-yl)methyl)benzo[d]isoxazol-3-yl)benzenesulfonamide], for which the Ki on KAT6A was 40.3 nM; on KAT6B it was 58.3 nM; on KAT5, 6220 nM; on KAT7, 610 nM; on KAT8, 4950 nM. In addition, the IC50 in assay [1] is 46 nM; in assay [2], 1360 nM; in assay [3] it was 15000 nM; against TIP60-KAT5, 11200 nM; against MOZ-KAT6A, 30 nM; on HBO1-KAT7, 340 nM.
`COc1cccc(OC)c1S(=O)(=O)Nc1noc2cc(Cn3cccn3)cc(OC)c12` [Example 98, N-(6-((1H-pyrazol-1-yl)methyl)-4-methoxybenzo[d]isoxazol-3-yl)-2,6-dimethoxybenzenesulfonamide] had an IC50 in [1] of 0.6 nM.
Take `COc1cc(Cn2cccn2)cc2onc(NS(=O)(=O)c3cccc4cc(C)cnc34)c12` [Example 99, N-(6-((1H-pyrazol-1-yl)methyl)-4-methoxybenzo[d]isoxazol-3-yl)-3-methylquinoline-8-sulfonamide]: the IC50 in assay [2] worked out at 1550 nM; in [3], 11400 nM; on TIP60-KAT5 it was 980 nM; on MOZ-KAT6A, 13 nM; at HBO1-KAT7, 120 nM.
For `COc1cccc(OC)c1S(=O)(=O)Nc1noc2c(-c3cnn(C)c3)cc(C)cc12` [Example 102, 2,6-dimethoxy-N-(5-methyl-7-(1-methyl-1H-pyrazol-4-yl)benzo[d]isoxazol-3-yl)benzenesulfonamide], in that order: 28300 nM, above 40000 nM, above 125000 nM, 48800 nM and 1400 nM.
As for `COc1cccc(OC)c1S(=O)(=O)Nc1noc2cc(-c3cnn(C)c3)cc(OC)c12` [Example 101, 2,6-dimethoxy-N-(4-methoxy-6-(1-methyl-1H-pyrazol-4-yl)benzo[d]isoxazol-3-yl)benzenesulfonamide], the IC50 was 11200 nM against TIP60-KAT5, 1260 nM at MOZ-KAT6A and 1550 nM at HBO1-KAT7.
